Laboratory results taken from patent US20230131219A1, “USE OF AGONISTS TO AUGMENT CAR T FUNCTION IN SOLID TUMORS” (The University of North Carolina at Chapel Hill, priority 2019, published 2023).

Assays:
Assay type in all cases: in vivo, FVB-Neu mice
NT2 tumors [1] = assay: Orthotopic murine breast tumor model: tumor growth and survival
Procedure: 8-12 week old female FVB-Neu mice (Jackson Labs) were used under a protocol approved by University of North Carolina Institutional Animal Care and Use Committee. For tumor inoculation, mice were intradermally injected with 5×10^4 NT2 tumor cells into an axillary mammary gland. 21 days later (day 0), 1.5×10^6 CD4+ and 1.5×10^6 CD8+ CAR T cells were injected intravenously. Tumors were measured twice weekly with calipers and the tumor area calculated as length×width. The change of tumor area was determined by subtracting the tumor area before CAR T injection with the value on the day of the measurement. Per institutional guidelines, tumor-bearing mice were sacrificed when the tumor area reached 200 mm^2 or loss of more than 20% of total body weight. For tumor-bearing animals receiving combination therapy, animals underwent lymphodepletion with 5 Gy of whole body irradiation (X-RAD 320, Precision X-Ray) one day prior to CAR T injection. In the morning of day 0 mice were injected with 500 μg of DMXAA (Tocris) distal to the site of tumor growth with CAR T cells injected in the afternoon. Starting 1 day after CAR T infusion, anti-PD-1 (J43, 200 μg/mouse), anti-Gr-1 (RB6-8C5, […]), and […] (R4-6A2, 250 μg/mouse) mAb were injected intraperitoneally into respective recipients.

NT2 tumors [2] = assay: Flow cytometry of CAR T cells in tumor microenvironment and spleen
Procedure: At indicated time points, tumors were bluntly resected and cut into small pieces and processed into a single-cell suspension using gentleMACS™ Dissociator (Miltenyi). Lymphocyte enrichment was achieved by isolating cells at the interface of 44% Percoll (Sigma-Aldrich) in media and Lympholyte-M (Cedarlane). Isolated immune cells were stained as described below. The lymphocyte fraction was not enriched in experiments where absolute cell number was determined.
Anti-Neu CAR T cells were detected using recombinant Neu/Her2.Fc fusion protein conjugated with PE (Neu-PE) (Creative Biomart). Antibodies used in in vitro assays included anti-CD45-FITC/e450 (30-F11, Invitrogen), anti-IFN-γ-APC (XMG1.2, Invitrogen), anti-TNF-PE-Cy7 (MP6-XT22, Invitrogen) and anti-IL-17A-PE (eBio17B7, Invitrogen). Tumor-infiltrating immune cells were detected and analyzed with anti-CD45-FITC, anti-CD3-e450 (17A2, Invitrogen), anti-CD4-BV510 (GKL.5, Biolegend), anti-CD8-APC-Cy7 (53-6.7 BD Biosciences), anti-CD44-PerCP5.5 (IM7, Invitrogen), anti-CD62L-APC (MEL-14, Invitrogen), anti-CD11b-BV711 (M1/70, Invitrogen), anti-F4/80-BV605 (BM8, Invitrogen), anti-Gr-1-Percp5.5 (RB6-8C5, Invitrogen), anti-PD-1-PE-Cy7 (J43, Invitrogen), anti-CD127-BV421 (A7R34, Biolegend), anti-KLGR1-BV605 (2F1, BD Bioscience). For in vivo intracellular protein staining, anti-Foxp3-PerCP5.5 (FJK-16S. Invitrogen), anti-Ki67-APC (SOLA15, Invitrogen) were used. Dead cells were excluded with Fixable Viability Stain 700 (BD Biosciences) and Fc receptors were blocked with Fc block (BD Biosciences). Cell number was determined using Count Bright Beads (Invitrogen). Data were collected using a BD LSR-Fortessa or BD Canto cytometer (BD Biosciences). Data were analyzed with FlowJo software (Treestar).

NT2 tumors [3] = assay: Single cell RNA sequencing of tumor infiltrating CD45+ immune cells; conditions: DMXAA with Th/Tc17 CAR T cells
Excerpt: At day 7 or day 10 after CAR-T therapy, tumors were bluntly resected and cut into small pieces and digested using Tumor Dissociation Kit, mouse (Miltenyi) in gentleMACS™ Dissociator (Miltenyi) according to manufacturer's instruction. After digestion, dead and dying cells were magnetically separated using a Dead Cell Removal Kit (Miltenyi), after which immune cells were magnetically enriched using CD45 (TIL) MicroBeads (Miltenyi). Single cells were partitioned using a Chromium Controller (10× Genomics), and gene expression sequencing libraries were generated using Chromium Single Cell 3′ Library & Gel Bead Kit v3 (10× Genomics). The libraries were pooled and sequenced using an Illumina NovaSeq 6000 (Illumina). Raw base call files were demultiplexed with Cell Ranger 3.1.0 (10× Genomics) and bcl2fastq Conversion Software v2.20.0 (Illumina).
Single cell results from Cell Ranger output was analyzed using Partek flow workstation (available at partek.com/application-page/single-cell-gene-expression/). In detail, single cell result from each sample of Cell Ranger output was filtered using single cell (QA/QC) filter to exclude doublets/multiplets, cells expressing genes <30 genes per cell and dead cells. Processed results were normalized using recommended method, including log normalization of gene expression and scaled to count per million. Following results were filtered out by feature (gene) that were not expressed in 99% of samples. Then the replicate samples were pooled and clustered with an unsupervised method based on PCA using the first 16 principle component. Clustered plots were visualized by t-SNE plot, where cells were clustered using shared nearest neighbor (SNN). Populations was determined by expression of key markers, including Cd3e (T cells), Adgre1 (macrophage) and Itgam and/or Itgax (myeloid cells), and T cells were further clustered by expression of Cd8 and Cd44 (activated CD8 T cells), lack of Cd44 (naive T cells), Cd4 Cd44 (activated CD4 T cells) and Cd4 Foxp3 (Treg). For comparison, samples from each treatment group was pooled by the mean expression to simulate bulk RNA-seq, and compared using GSA analysis directly. Gene hits that reached P<0.05 with more than 2 or less than −2 fold expression difference was reported and shown as a heat map for pooled samples (macrophage and myeloid cells) or Q<0.05 with 2 or −2 fold expression difference for non-pooled samples (T cells). Further detailed analysis steps can be found on Partek flow page (available at documentation.partek.com/pages/viewpage.action?pageId=12943422) and parameter setting was set as default unless indicated.

[4] = DMXAA prior to Th/Tc17 CAR-T cell infusion, compared to mock transduced T cells or Th/Tc17 CAR-T cells alone
[5] = DMXAA with Th/Tc17 CAR T cells, flow cytometry

SMILES: Cc1ccc2c(=O)c3cccc(CC(=O)O)c3oc2c1C [DMXAA]
- anti-tumor efficacy (NT2 tumors [1]; [4]): significantly improved
- overall survival (NT2 tumors [1]; [4]): significantly improved
- requirement for tumor remission (NT2 tumors [1]; Th/Tc17 CAR-T, DMXAA, anti-PD-1 and anti-Gr1 treatment): required for tumor remission
- persistence of CAR T cells in the TME (NT2 tumors [2]; DMXAA given with 7/15 CAR T cells, at a site remote from the tumor): enhanced the persistence
- number of CAR T cells (NT2 tumors [2]; DMXAA treatment, through day 10 post-therapy): marked increase
- number and percentage of CD4+ CAR T cells (NT2 tumors [2]; [5]): increase in the number and percentage
- percentage and number of CAR T cells in the TME (NT2 tumors [2]; [5]): greatly increased
- expression of CXCL9 and CXCL10 by myeloid cells within the TME (NT2 tumors [3]): increased expression
- expression of APOE, PTGS2 and AREG in myeloid cells (NT2 tumors [3]; day 7): reduced expression
- expression of BATF2, CXCL10, CCL5, SOCS1, NOS2 and IL12A in second myeloid cluster (NT2 tumors [3]; day 7): greatly enhanced expression
- expression of genes associated with M1-like macrophages including NOS2 and INHBA (NT2 tumors [3]; day 7): increased expression
- presence of M2-like macrophages expressing RENTLA, MMRC1, FOLR2 and IL10 in the TME (NT2 tumors [3]; day 7): marked decrease
- accumulation of T cells co-expressing TBX21, IFNG, CXCR3 and CCR5 (NT2 tumors [3]; day 7, CD8+ CAR T cells): enhanced the accumulation
